This note sets out measurements from patent publication US6338963B1, “Use of carbon monoxide dependent guanylyl cyclase modifiers to stimulate neuritogenesis” (NeoTherapeutics, Inc., priority 1994, dated 2002).

The subject of one assay is C57BL/6 mice. In words: Ethanol-induced working memory deficit (win-shift). It counts as in vivo. Conditions: Ethanol 0.5 gm/kg i.p. ten minutes prior to testing. The protocol:
Six month old male C57BL/6 mice were evaluated in the win-shift model in combination with treatment with ethanol, a non-specific memory suppressant, and AIT-082. Subjects were treated with saline (control) or AIT-082 (30 mg/kg. i.p.) 1 hour prior to testing. Ethanol was administered at a dose of 0.5 gm/kg i.p. ten minutes prior to testing.

For assay [1], the system named is cGMP levels in PC12 cells. As to the kind of experiment: cGMP levels in PC12 cells (radioimmunoassay). In kind it is cell-based, rat. Conditions: NGF-primed PC12 cells. As to the method:
Initially, PC-12 cells were primed with 40 ng/ml NGF for 3 days in low serum medium (1.5% horse serum+5% fetal calf serum). Cells were seeded onto assay plates in low serum medium containing 40 ng/ml NGF and incubated for 1 hour. The medium was changed to low arginine medium (80 μM) with no serum and NGF and papaverine ([…]) where indicated. Test compounds were added for the indicated time and the reaction was stopped by adding 5% TCA containing 10,000 dpm of ^3H-cGMP. cGMP was assayed by the radioimmunoassay method of Maurice (Mol. Pharmacol. 37: 671-681, 1990). TCA was purified by adding powdered charcoal (5 g) and filtering the mixture through Whatman #1 paper. This removed contaminants in the TCA that otherwise interfere with the radioimmunoassay (RIA) of cGMP.
It was necessary to purify the cGMP from cAMP and other contaminants before radioimmunoassay since these other materials can interfere with the assay. Briefly, the TCA solution was applied to Dowex columns (50W-8X, 200-400 mesh) and eluted. A neutral alumina column was then placed under each Dowex column. The cGMP was eluted from the Dowex columns into neutral alumina columns by adding 4 mL of 0.05 M HCl to each Dowex column. The neutral alumina columns were then sequentially rinsed with 2 ml of HCl, 4 mL water and finally with 0.2 M sodium acetate (pH 6.2). The cGMP collected for the RIA eluted in 1 ML of sodium acetate with a recovery between 50-65%. The cGMP was assayed using a Dupont RIA kit.

Assay [2] relates to rat cultured astrocytes. In words: Release of radioactively labeled adenine-based purines from rat cultured astrocytes. It counts as cell-based. Conditions: 300 μM, 1 hour. The protocol:
The experiments were carried out on cultured astrocytes of rat hippocampus at the fourth day in vitro (DIV), obtained from primary cultures replated in 35 mm Petri dishes ([…] cells/dish) and preloaded with [^3H]-adenosine (5×10^−8 M for a specific activity of 20.0 Ci/mM) for 30 minutes at 37° C.
The effect of AIT-082 on the proportional release of radioactively labeled adenine nucleosides and nucleotides from rat cultured astrocytes is shown in FIGS. 29A and 29B. Culture medium collected during the first hour of the release was analyzed by high performance liquid chromatography (HPLC) and the radioactivity associated with the different adenine compounds was measured and expressed as a percentage of the total radioactivity released. The results are shown for ATP, ADP, and AMP in FIG. 29A, and for adenosine, inosine, and hypoxanthine in FIG. 29B.

The subject of assay [3] is rat cultured astrocytes. The description is as above. In kind it is cell-based. Conditions: 300 μM.
The subject of another assay is neocortical astrocytes. In words: NGF-like immunoreactivity in astrocyte culture medium (ELISA). It counts as cell-based, mouse. Conditions: astrocytes incubated with different concentrations. As to the method:
Astrocytes appear to proliferate in response to extracellular guanosine or guanosine triphosphate (GTP). GTP or guanosine may also stimulate the release of trophic factors from cultures of neocortical astrocytes from neonatal mouse brains. Astrocytes were incubated with different concentrations of guanosine or GTP respectively. Neurotrophin imunoreactivity in the culture medium from treated cells was then measured by ELISA.
Briefly, 96 well Falcon plates (Fisher) were coated with […] of sheep mono-specific anti-NGF IgG (affinity column purified) contained in 0.1M sodium carbonate buffer pH 9.6. After an overnight incubation at 4° C. blocking solution (PBS with 10% goat serum) was added to remove excess antibody. After a four hour incubation at room temperature the plates were washed three times with PBS containing 0.05% Tween 20. The conditioned media and standard 2.5S HPLC purified NGF were added and incubated overnight. The next day plates were washed 3 times with PBS-0.05% Tween 20. The secondary antibody, rabbit mono-specific anti-NGF IgG conjugated with β-galactosidase (Pierce-SPDP method) (1:500 dilution) was added. The plates were incubated overnight at 4° C. The next day the plates were washed 3 times with PBS-0.05% Tween 20. […]
The ELISA assay detected neurotrophins NGF and NT-3 with ahnost equal affinity and BDNF with 100 times less affinity. […]

Another assay has as its system PC12 cells. As to the kind of experiment: Neuritogenesis in PC12 cells. In kind it is cell-based, rat. The protocol: Much of the work performed in the characterization of the compounds of the present invention involved the use of PC12 cells. These cells are derived from a rat pheochromocytoma and when grown in the presence of NGF, extend neurites, cease cell division and assume many characteristics of sympathetic neurons. When cultured in the absence of nerve growth factor (NGF), few PC12 cells have neurites greater than one cell diameter. Addition of saturating concentrations of NGF for 48 hours stimulates neurite outgrowth in about 20-35% of the cells. Because they constitute a homogeneous population of neuronal-like cells, without contaminating astroglia type cells, it is possible to study the direct effects of the purine based compounds on neurite outgrowth in these cells.
Cells cultured in RPMI 1640 with 1.5% horse serum and 1.5% fetal bovine serum were re-plated onto poly-ornithine coated 24-well culture plates (2.5×10^4 cells per well). AIT-082 and NGF were added to the various cultures immediately upon plating. After 48 hours, medium was removed and the cells irnmediately fixed in 10% formalin and PBS for 10 minutes. Cells and neurites were counted within 2 days of fixation.
A neurite was defined as a process extending from the cell at least 1 cell body diameter in length and displaying a growth cone at its tip. For each treatment, 2 representative microscope fields were counted from each of 6 sister cultures receiving identical treatments. The total number of cells counted per well (approximately 100 cells) and the total number of cells containing neurites in each well were used to determine fraction of neurite-bearing cells. The mean values (±SEM) were then determined for each of the treatments. To facilitate comparison neurite outgrowth was expressed relative to the proportion of cells bearing neurites in the presence of NGF alone (NGF=100%). The effects of compounds with and without NGF were compared by analysis of variance (ANOVA) followed by Tukey's test for significance.
The results are shown in FIG. 3 where the curve represents different levels of AIT-082 plus saturating concentrations (40 ng/ml) NGF. The center horizontal line represents control values for cells cultured in the presence of 40 ng/ml NGF alone. Upper and lower horizontal lines are indicative of confidence limits of NGF alone as determined using standard statistical methods.

In the next assay the test system is mice. In words: T-maze memory test with atropine co-administration. It counts as in vivo. Conditions: AIT-082 30 mg/kg i.p. 2 hr prior; atropine 0.5 mg/kg i.p. 1/2 hour prior to testing, day 3. As to the method: To elucidate the mechanisms by which AIT-082 improves memory, attempts were made to block its actions by co-administration of the short-acting cholinergic antagonist atropine to mice and subjecting them to simple learning tests. Atropine reportedly has the ability to block the effects of physostigmine and THA. Mice were injected with AIT-082 (30 mg/kg) 2 hr prior to testing on days 1 through 4. Atropine (0.5 mg/kg) was injected ½ hour prior to testing or 1.5 hours after AIT-082 on day 3 only. All injections were i.p. After a reference run to determine where the reward was placed in a T-maze, the mice were retested to determine if they could remember the location of the reward. The percentage of correct responses is graphically represented in FIG. 2.

SMILES strings stand for the structures.

As to `CCO` [Ethanol, ethanol, reference compound], the “Correct trials (mean number of correct responses per 10 trials ± S.E.)” value in the assay with C57BL/6 mice amounted to 6.5 ± 26.

Regarding `Nc1nc2c(ncn2[C@@H]2O[C@H](COP(=O)(O)OP(=O)(O)OP(=O)(O)O)[C@@H](O)[C@H]2O)c(=O)[nH]1` [GTP, guanosine triphosphate, reference compound], the “cGMP in PC12 cells” value in assay [1] is given as “did not increase levels of cGMP”. Also, in the assay with rat cultured astrocytes [2], the “ADP, proportional release” value is “(17.8 ± 2.6) percentage of the total [^3H]-purines released”; the “Adenosine, proportional release” value is “(4.0 ± 0.5) percentage of the total [^3H]-purines released”; the “Inosine, proportional release” value was “(14.0 ± 1.7) percentage of the total [^3H]-purines released”. Further, in the assay on rat cultured astrocytes [3] (1 hour), the “ADP, radioactivity released in the culture medium” value is reported as 2.10 ± 0.31 cpm × 10^3; the “AMP, proportional release” value is “(23.5 ± 2.4) percentage of the total [^3H]-purines released”; the “AMP, radioactivity released in the culture medium” value is reported as 2.76 ± 0.28 cpm × 10^3; the “ATP, proportional release” value is “(10.9 ± 1.1) percentage of the total [^3H]-purines released”. Also, in the assay with rat cultured astrocytes [3] (1 hour), the “ATP, radioactivity released in the culture medium” value is given as 1.28 ± 0.13 cpm × 10^3; the “Adenosine, radioactivity released in the culture medium” value was 0.47 ± 0.06 cpm × 10^3; the “Hypoxanthine, proportional release” value is “(18.4 ± 2.6) percentage of the total [^3H]-purines released”; the “Hypoxanthine, radioactivity released in the culture medium” value was 2.20 ± 0.31 cpm × 10^3. In addition, in the assay on rat cultured astrocytes [3] (1 hour), the “Inosine, radioactivity released in the culture medium” value worked out at 1.65 ± 0.2 cpm × 10^3. In the assay on rat cultured astrocytes [3] (3 hours), the “ADP, proportional release” value is “(8.6 ± 0.7) percentage of the total [^3H]-purines released”; the “ADP, radioactivity released in the culture medium” value stood at 1.05 ± 0.09 cpm × 10^3; the “AMP, proportional release” value is “(40.0 ± 3.9) percentage of the total [^3H]-purines released”; the “AMP, radioactivity released in the culture medium” value worked out at 4.32 ± 0.48 cpm × 10^3. Further, in the assay with rat cultured astrocytes [3] (3 hours), the “ATP, proportional release” value is “(4.4 ± 0.4) percentage of the total [^3H]-purines released”; the “ATP, radioactivity released in the culture medium” value was 0.54 ± 0.05 cpm × 10^3; the “Adenosine, proportional release” value was “(2.5 ± 0.2) percentage of the total [^3H]-purines released”; the “Adenosine, radioactivity released in the culture medium” value turned out to be 0.31 ± 0.02 cpm × 10^3. Also, in the assay on rat cultured astrocytes [3] (3 hours), the “Hypoxanthine, proportional release” value was “(25.0 ± 3.7) percentage of the total [^3H]-purines released”; the “Hypoxanthine, radioactivity released in the culture medium” value is given as 3.11 ± 0.45 cpm × 10^3; the “Inosine, proportional release” value is “(9.7 ± 1.2) percentage of the total [^3H]-purines released”; the “Inosine, radioactivity released in the culture medium” value was 1.19 ± 0.19 cpm × 10^3. In the assay with neocortical astrocytes, the “NGF-like immunoreactivity in the culture medium” value was “increased the amount of NGF-like immunoreactivity”. In the assay on PC12 cells (compound alone), the “neurite outgrowth in the absence of NGF” value was “elicited neurite outgrowth on its own”. Besides, the “enhancement of NGF-induced neurite outgrowth” value in the assay on PC12 cells (in the presence of NGF, 48 hours) is reported as “did enhance neuritogenesis in the presence of NGF”.

Turning to `CN1[C@@H]2CC[C@H]1C[C@@H](OC(=O)C(CO)c1ccccc1)C2` (stereo partly drawn) [atropine], the “effect of atropine on memory enhancement by AIT-082” value with mice is on record as “blocked the memory enhancing activity of AIT-082”.
